# Assay results published in paper PMC12209990, “Effect of Cytochrome P450 3A Inhibition and Induction by Itraconazole and Rifampin on Tazemetostat Pharmacokinetics in Patients With Advanced Malignancies” (Clinical Pharmacology in Drug Development, 2025).
# Where two headings read alike, the source gives them in different places. Marks after values point to notes of the source that are not given here.
# Assay: Phase I DDI study Part 1: tazemetostat plasma PK alone and with itraconazole (noncompartmental analysis)
# Assay type: in vivo, human
# Conditions: Part 1; for RacAUC (AUC0‐12h accumulation ratio), geoLSM (90% CI) / RacCmax (Cmax accumulation ratio), geoLSM (90% CI): tazemetostat 400 mg alone, Day 15 versus Day 1; for AUC / AUC(0-t) / Cmax / half-life / Tmax: human; for Tmax: read-out: tmax, median (range)
# From the text: This was a Phase I, multicenter, open‐label, 2‐part study encompassing a fixed‐sequence design that aimed to characterize the PK of tazemetostat when administered as single and twice‐daily oral doses alone or in combination with either itraconazole (Part 1) or rifampin (Part 2). Secondary objectives were to evaluate the safety profile of tazemetostat when coadministered with either itraconazole (Part 1) or rifampin (Part 2).
# Part 1 of the study evaluated the DDI between tazemetostat and itraconazole. On the mornings of Days 1 and 15, patients received a single dose of tazemetostat 400 mg orally. On Days 3‐14, patients received tazemetostat 400 mg twice daily (morning and evening). On Days 18‐20, patients received itraconazole 200 mg orally once daily in the morning. On Days 21‐35, tazemetostat 400 mg twice daily was coadministered in the morning with a single dose of itraconazole 200 mg. On Day 36, patients received a single dose of tazemetostat 400 mg coadministered in the morning with a single dose of itraconazole 200 mg. On Days 37 and 38, patients received a single dose of itraconazole 200 mg (Figure 1A). Throughout Part 1, administration of itraconazole occurred 1 hour after a meal.
# In Part 1, plasma concentrations of tazemetostat following tazemetostat dosing on Days 1, 15, 21, and 36 were quantified for PK analyses before dosing (0 hour), and at 0.5, 1, 1.5, 2, 4, 6, 8, 12, 24 (Days 21‐22), 36, 48 (Days 1‐3), and up to 72 hours after dosing (Days 15‐18 and Days 36‐39).
# Plasma concentrations of tazemetostat, over the ranges of 1.00‐2000 ng/mL, were quantified by a fully validated liquid chromatography with tandem mass spectrometric detection analytical method. Samples that had no detectable peak or had the calculated concentration <1.00 ng/mL were reported as below the lower limit of quantification. Tazemetostat analysis consisted of protein precipitation extraction and separation using mobile phases of 100 mM ammonium formate/water (1:9 v/v) (mobile phase A) and 100 mM ammonium formate/acetonitrile (1:9 v/v) (mobile phase B). Detection was achieved using an API‐5500 mass spectrometer (AB Sciex) using electrospray ionization (positive‐ion mode) in the multiple reaction monitoring mode. The multiple reaction monitoring mode m/z transitions monitored were […] for tazemetostat and the dwell time was set at 300 milliseconds.
# Plasma concentration‐time data for tazemetostat were analyzed by noncompartmental analysis using the validated software program Phoenix WinNonlin Professional Version 8.3 (Certara Inc., Mountain View, CA).
# [1] = single dose with itraconazole vs alone, Day 21 versus Day 1
# [2] = single dose with itraconazole vs alone, Day 21 versus Day 1, listed as tazemetostat
# [3] = steady state with itraconazole vs alone, Day 36 versus Day 15
# [4] = steady state with itraconazole vs alone, Day 36 versus Day 15, listed as tazemetostat
structure (smiles),measurement,setting,value
CCN(c1cc(-c2ccc(CN3CCOCC3)cc2)cc(C(=O)NCc2c(C)cc(C)[nH]c2=O)c1C)C1CCOCC1 [Tazemetostat],"AUC0‐12h ratio, geoLSM (90% CI)",[1],3.12 (2.44‐3.99) ^b
same,"Cmax ratio, geoLSM (90% CI)",[1],2.00 (1.60‐2.48) ^b
same,"AUC0‐12h ratio, geoLSM (90% CI)",[2],3.12
same,"Cmax ratio, geoLSM (90% CI)",[2],2.00
same,"AUC0‐12h ratio, geoLSM (90% CI)",[3],2.47 (2.02‐3.02) ^c
same,"Cmax ratio, geoLSM (90% CI)",[3],1.86 (1.49‐2.31) ^c
same,"AUC0‐12h ratio, geoLSM (90% CI)",[4],2.47
same,"Cmax ratio, geoLSM (90% CI)",[4],1.86
same,"RacAUC (AUC0‐12h accumulation ratio), geoLSM (90% CI)",,0.842 (0.726‐0.976) ^e
same,"RacCmax (Cmax accumulation ratio), geoLSM (90% CI)",,0.771 (0.662‐0.897) ^e
same,"RacAUC (AUC0‐12h accumulation ratio), geoLSM (90% CI)",listed as tazemetostat,0.842
same,"RacCmax (Cmax accumulation ratio), geoLSM (90% CI)",listed as tazemetostat,0.771
same,"AUC0‐12 h, GeoMean (CV%)","tazemetostat 400 mg multiple dosing with itraconazole 200 mg once daily, Day 36, plasma",4530 (64.5) ng•h/mL
same,"t1/2, GeoMean (CV%)","tazemetostat 400 mg single dose with itraconazole 200 mg once daily, Day 21, plasma, estimated over a 12‐hour dosing interval",2.86 (28.9) ^a hour
same,AUC,"plasma, oral, 400 mg, tazemetostat 400 mg twice daily alone, multiple dosing, Day 15, plasma, read-out: AUC0‐12 h, GeoMean (CV%)",1830 ng·h/mL
same,AUC,"plasma, oral, 400 mg, tazemetostat 400 mg twice daily alone, multiple dosing, Day 15, plasma, read-out: AUC0‐12 h, mean (SD)",1960 ng·h/mL
same,AUC(0-t),"plasma, oral, 400 mg, tazemetostat 400 mg twice daily alone, multiple dosing, Day 15, plasma, read-out: AUClast, GeoMean (CV%)",2200 ng·h/mL
same,AUC(0-t),"plasma, oral, 400 mg, tazemetostat 400 mg twice daily alone, multiple dosing, Day 15, plasma, read-out: AUClast, mean (SD)",2340 ng·h/mL
same,Cmax,"plasma, oral, 400 mg, tazemetostat 400 mg twice daily alone, multiple dosing, Day 15, plasma, read-out: Cmax, GeoMean (CV%)",543 ng/mL
same,Cmax,"plasma, oral, 400 mg, tazemetostat 400 mg twice daily alone, multiple dosing, Day 15, plasma, read-out: Cmax, mean (SD)",643 ng/mL
same,half-life,"plasma, oral, 400 mg, tazemetostat 400 mg twice daily alone, multiple dosing, Day 15, plasma, read-out: t1/2, GeoMean (CV%) (converted)",8.01 h
same,half-life,"plasma, oral, 400 mg, tazemetostat 400 mg twice daily alone, multiple dosing, Day 15, plasma, read-out: t1/2, mean (SD) (converted)",8.62 h
same,Tmax,"plasma, oral, 400 mg, tazemetostat 400 mg twice daily alone, multiple dosing, Day 15, plasma",1.27 h
same,AUC,"plasma, oral, tazemetostat 400 mg multiple dosing with itraconazole 200 mg once daily, Day 36, plasma, read-out: AUC0‐12 h, mean (SD)",5160 ng·h/mL
same,AUC(0-t),"plasma, oral, tazemetostat 400 mg multiple dosing with itraconazole 200 mg once daily, Day 36, plasma, read-out: AUClast, GeoMean (CV%)",5750 ng·h/mL
same,AUC(0-t),"plasma, oral, tazemetostat 400 mg multiple dosing with itraconazole 200 mg once daily, Day 36, plasma, read-out: AUClast, mean (SD)",6490 ng·h/mL
same,Cmax,"plasma, oral, tazemetostat 400 mg multiple dosing with itraconazole 200 mg once daily, Day 36, plasma, read-out: Cmax, GeoMean (CV%)",1010 ng/mL
same,Cmax,"plasma, oral, tazemetostat 400 mg multiple dosing with itraconazole 200 mg once daily, Day 36, plasma, read-out: Cmax, mean (SD)",1190 ng/mL
same,half-life,"plasma, oral, tazemetostat 400 mg multiple dosing with itraconazole 200 mg once daily, Day 36, plasma, read-out: t1/2, GeoMean (CV%) (converted)",11.9 h
same,half-life,"plasma, oral, tazemetostat 400 mg multiple dosing with itraconazole 200 mg once daily, Day 36, plasma, read-out: t1/2, mean (SD) (converted)",12.9 h
same,Tmax,"plasma, oral, tazemetostat 400 mg multiple dosing with itraconazole 200 mg once daily, Day 36, plasma",1.49 h
same,half-life,"plasma, oral, tazemetostat 400 mg single dose with itraconazole 200 mg once daily, Day 21, plasma, estimated over a 12‐hour dosing interval, read-out: t1/2, mean (SD) (converted)",2.95 h
same,AUC,"plasma, oral, tazemetostat 400 mg single dose with itraconazole 200 mg once daily, Day 21, plasma, read-out: AUC0‐12 h, GeoMean (CV%)",6790 ng·h/mL
same,AUC,"plasma, oral, tazemetostat 400 mg single dose with itraconazole 200 mg once daily, Day 21, plasma, read-out: AUC0‐12 h, mean (SD)",8000 ng·h/mL
same,AUC(0-t),"plasma, oral, tazemetostat 400 mg single dose with itraconazole 200 mg once daily, Day 21, plasma, read-out: AUClast, GeoMean (CV%)",6720 ng·h/mL
same,AUC(0-t),"plasma, oral, tazemetostat 400 mg single dose with itraconazole 200 mg once daily, Day 21, plasma, read-out: AUClast, mean (SD)",7930 ng·h/mL
same,Cmax,"plasma, oral, tazemetostat 400 mg single dose with itraconazole 200 mg once daily, Day 21, plasma, read-out: Cmax, GeoMean (CV%)",1400 ng/mL
same,Cmax,"plasma, oral, tazemetostat 400 mg single dose with itraconazole 200 mg once daily, Day 21, plasma, read-out: Cmax, mean (SD)",1640 ng/mL
same,Tmax,"plasma, oral, tazemetostat 400 mg single dose with itraconazole 200 mg once daily, Day 21, plasma",1.53 h
same,AUC,"plasma, po, 400 mg, tazemetostat 400 mg oral single dose alone, Day 1, plasma, read-out: AUC0‐12 h, GeoMean (CV%)",2180 ng·h/mL
